From patent US5064856A, “Novel HMG-CoA synthase inhibitors” (Merck & Co., Inc., priority 1989, dated 1991)

molecular target: T1, HMG-CoA synthase (Rattus norvegicus, UniProt P17425); experiment: HMG-CoA synthase inhibition assay; assay type: biochemical; details: enzyme from rat liver; 5 min preincubation, 30°, pH 8.0; [14C]-acetyl-CoA
T1 construct: The livers from male Charles River CD rats (225-350 g) were homogenized in 0.25M sucrose; from tissue; host or cells: liver of male Charles River CD rats
T1 sequence (P17425 1-520): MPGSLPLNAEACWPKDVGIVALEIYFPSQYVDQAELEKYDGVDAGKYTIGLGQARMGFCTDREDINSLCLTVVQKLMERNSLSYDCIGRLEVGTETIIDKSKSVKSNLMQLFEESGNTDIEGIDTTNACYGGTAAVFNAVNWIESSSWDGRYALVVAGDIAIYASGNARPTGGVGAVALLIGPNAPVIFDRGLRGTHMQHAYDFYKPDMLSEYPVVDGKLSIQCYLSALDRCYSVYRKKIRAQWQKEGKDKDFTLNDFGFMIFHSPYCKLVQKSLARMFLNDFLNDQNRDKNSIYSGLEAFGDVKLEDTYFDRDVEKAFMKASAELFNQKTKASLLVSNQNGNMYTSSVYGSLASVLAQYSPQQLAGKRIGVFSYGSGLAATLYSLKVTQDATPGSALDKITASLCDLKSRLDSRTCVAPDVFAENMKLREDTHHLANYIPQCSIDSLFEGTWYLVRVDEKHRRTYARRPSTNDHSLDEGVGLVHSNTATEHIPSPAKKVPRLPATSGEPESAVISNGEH
Procedure: The intrinsic HMG--CoA synthase inhibition activity of the compounds of this invention is measured by the standard in vitro protocol described below:
The livers from male Charles River CD rats (225-350 g) were homogenized in 0.25M sucrose which was adjusted with phenylmethylsulfonylfluoride (PMSF) and N-p-tosyl-1-lysine chloromethyl ketone (TLCK) so that the final concentration of each was 50 and 25 μg/ml, respectively. The homogenate was first centrifuged at 700×g for 10 minutes, the supernatant decanted and recentrifuged at 7,700×g for 20 minutes. This supernatant was filtered through a fine nylon screen to remove most of the fat layer and recentrifuged at 100,000×g for 1 hour. This supernatant was removed and 1M potassium phosphate, dithiothreitol (DTT) and ethylene glycolbis(β-aminoethyl ether)-N,N,N',N'-tetraacetic acid (EGTA) added to give a final concentration of 0.1M (pH 7.2), 0.5 mM and 0.1 mM, respectively. Solid ammonium sulfate was added to 50% saturation to the protein solution, it was centrifuged at 15,000×g and the supernatant discarded. This precipitated protein could be stored at -70° C. for at least one month with very little loss of activity. The ammonium sulfate precipitate was dissolved in an minimal amount of 0.06M potassium phosphate buffer (pH 7.2) containing 0.5 mM dithiothreitol and 0.1 mM EGTA (referred to as 0.06M phosphate buffer) and dialyzed overnight against 2 liters of the same buffer to remove the ammonium sulfate and to inactivate HMG--CoA lyase [Clinkenbeard, et al., J. Biol. Chem. 250, 3108-3116 (1975)].
The dialyzed extract was added to a column of DEAE-52 (Whatman) which had been equilibrated with 0.06M phosphate buffer (10 mg of protein to 1 ml bed volume of the resin). The DEAE-cellulose was eluted with 0.06M phosphate buffer until the optical density at 280 nm was essentially zero. This fraction contained the β-ketoacetyl-CoA thiolase activity. The HMG--CoA synthase was eluted from the column with 0.1M KCl in 0.06M phosphate buffer (pH 7.2) containing 0.5 mM DTT and 0.1 mM EGTA, and was virtually free of all thiolase activity. The protein was precipitated by the addition of ammonium sulfate to give 50% saturation. This solution was stirred for 10 minutes at 4° C. and the precipitate collected by centrifugation at 15,000 rpm for 10 minutes. The supernatant was discarded and the precipitate dissolved in a minimum of 0.06M phosphate buffer, pH 7.2 (about 10 ml) and the enzyme stored at -80° C.
HMG-- CoA Synthase Inhibition Assay
Enzyme protein (ca. 12.2 μg) was added to a solution containing 117 mM Tris-HCl (pH 8.0), 11.7 mM MgCl2, 1.17 mM Ethylenediaminetetraacetic acid (EDTA), 0.58 mM dithiothreitol, and the indicated concentrations of the test compound (added as a 2 μg/ml solution in dimethylsulfoxide). The incubation took place in a volume of 0.085 ml at 30° in a shaking water bath. After 5 minutes, 15 μl of a solution containing acetoacetyl-CoA and 0.1 μCi of 1-[^14 C]-acetyl-CoA was added to give a final concentrations of 0.1 and 0.4 mM, respectively. […] Radioactivity was determined in a Packard Tri-Carb liquid scintillation counter. Percent inhibition is calculated by the formula: [formula] IC50 values were determined by plotting the log of the concentration of the test compound verses the percentage inhibition and fitting a straight line to the resulting data by using the least squares method.

Row | IC50 [nM] | SMILES
1 | 6900 | CC=CCCCCC=CC(=O)NC1CC2(OC1=O)C(O)C1OC1C1OC12 (centres unmarked) [Compound A]
2 | 180 | CC=CCCCCC=CC(=O)NC(CC1(O)C(=O)C2OC2C2OC21)C(=O)OC (stereo not drawn) [Compound B, 3,8-Dioxatricyclo(5.1.0.0^2,^4)octane-5-propanoic acid, 5-hydroxy-6-oxo-α-((1-oxo-2,8-decadienyl)amino)-, methyl ester]
3 | > 10000 | CC=CCCCCC=CC(=O)NC1CC2(OC1=O)C(O)C1OC1C1OC12 (centres unmarked) [Compound A-1]
4 | 2500 | CC=CCCCCC=CC(=O)NC1CC2(OC1=O)C(=O)C1OC1C(O)C2O (centres unmarked) [Compound A-2, N-(4,5-dihydro-4',5'-dihydroxy-2',5-dioxospiro[furan-2(3H),3'-[7]oxabicyclo[4.1.0]-hept]-4-yl)-2,8-decadienamide]
5 | 360 | CC=CCCCCC=CC(=O)NC1CC2(OC1=O)C(=O)C1OC1C1OC12 (centres unmarked) [Compound C]
